Laboratory results: PubChem BioAssay AID1963444 (Molecular Pharmacology Branch, DTP, NCI, 2024)

Tested on: HSSY-II complex spheroid growth, percent test/control
Test: Anticancer human tumor HSSY-II cell line growth inhibition [Asc];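 note: spheroids exposed to drug for 7 days before reading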
Conditions: for IC50: curve of first compound; for viability, T/C: stronger effect = lower value
In short: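 Concentration series start at each agent's clinical Cmax, or at 10 microM when none is established, and drop in half-log steps; agents are applied alone or together to complex spheroids built with HUVEC and hMSC.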

[1] = second compound 0.1 µM, first compound 0.00316 µM
[2] = second compound 0.1 µM, first compound 0.01 µM
[3] = second compound 0.1 µM, first compound 0.0316 µM
[4] = second compound 0.1 µM, first compound 0.1 µM
[5] = second compound 0.1 µM, first compound 0.316 µM
[6] = second compound 0.1 µM, first compound 1 µM
[7] = second compound 0.316 µM, first compound 0.00316 µM
[8] = second compound 0.316 µM, first compound 0.01 µM
[9] = second compound 0.316 µM, first compound 0.0316 µM
[10] = second compound 0.316 µM, first compound 0.1 µM
[11] = second compound 0.316 µM, first compound 0.316 µM
[12] = second compound 0.316 µM, first compound 1 µM
[13] = second compound 1 µM, first compound 0.00316 µM
[14] = second compound 1 µM, first compound 0.01 µM
[15] = second compound 1 µM, first compound 0.0316 µM
[16] = second compound 1 µM, first compound 0.1 µM
[17] = second compound 1 µM, first compound 0.316 µM
[18] = second compound 1 µM, first compound 1 µM
[19] = second compound 3.16 µM, first compound 0.00316 µM
[20] = second compound 3.16 µM, first compound 0.01 µM
[21] = second compound 3.16 µM, first compound 0.0316 µM
[22] = second compound 3.16 µM, first compound 0.1 µM
[23] = second compound 3.16 µM, first compound 0.316 µM
[24] = second compound 3.16 µM, first compound 1 µM
[25] = second compound 10 µM, first compound 0.00316 µM
[26] = second compound 10 µM, first compound 0.01 µM
[27] = second compound 10 µM, first compound 0.0316 µM
[28] = second compound 10 µM, first compound 0.1 µM
[29] = second compound 10 µM, first compound 0.316 µM
[30] = second compound 10 µM, first compound 1 µM

Compound	IC50 (second compound 0.1 µM) [nM]	IC50 (second compound 0.316 µM) [nM]	IC50 (second compound 1 µM) [nM]	IC50 (second compound 3.16 µM) [nM]	IC50 (second compound 10 µM) [nM]	viability, T/C [1] [%]	viability, T/C [2] [%]	viability, T/C [3] [%]	viability, T/C [4] [%]	viability, T/C [7] [%]	viability, T/C [8] [%]	viability, T/C [9] [%]	viability, T/C [10] [%]	viability, T/C [13] [%]	viability, T/C [14] [%]	viability, T/C [15] [%]	viability, T/C [16] [%]	viability, T/C [19] [%]	viability, T/C [20] [%]	viability, T/C [21] [%]	further results
CCN1CCN(Cc2ccc(Nc3ncc(F)c(-c4cc(F)c5nc(C)n(C(C)C)c5c4)n3)nc2)CC1 + Cc1c(S(C)(=O)=O)c(-c2cc(F)cc(N3CCN(c4ccc(NS(=O)(=O)c5ccc(NC(CCN6CCC(C(=O)OCCCP(=O)(O)O)CC6)CSc6ccccc6)c(S(=O)(=O)C(F)(F)F)c5)cc4)CC3)c2)c(-c2ccc(Cl)cc2)n1C(C)C	259	146	135	112	69.9	90.8	105	71.5	68.5	92.4	88.2	75.6	52.8	94.7	83.1	70	57.6	80.9	91.8	74.2	viability, T/C [5]: 47.5%; viability, T/C [6]: 26.7%; viability, T/C [11]: 40%; viability, T/C [12]: 20.7%; viability, T/C [17]: 34.8%; viability, T/C [18]: 24.9%; viability, T/C [22]: 49%; viability, T/C [23]: 38.2%; viability, T/C [24]: 23.1%; viability, T/C [25]: 83.9%; viability, T/C [26]: 81.3%; viability, T/C [27]: 60.7%; viability, T/C [28]: 41.6%; viability, T/C [29]: 40.3%; viability, T/C [30]: 24.9%
Cn1ncnc1[C@H]1c2n[nH]c(=O)c3cc(F)cc(c23)N[C@@H]1c1ccc(F)cc1 + Cc1c(S(C)(=O)=O)c(-c2cc(F)cc(N3CCN(c4ccc(NS(=O)(=O)c5ccc(NC(CCN6CCC(C(=O)OCCCP(=O)(O)O)CC6)CSc6ccccc6)c(S(=O)(=O)C(F)(F)F)c5)cc4)CC3)c2)c(-c2ccc(Cl)cc2)n1C(C)C	15.4	12.7	7.69	8.69	6.57	81.1	55.8	39.5	23.1	71.7	55.5	33.6	18.2	63.4	50.3	22.4	13	73.6	47.5	21.6	viability, T/C (second compound 0.1 µM, first compound 0.000316 µM): 100%; viability, T/C (second compound 0.1 µM, first compound 0.001 µM): 98.9%; viability, T/C (second compound 0.316 µM, first compound 0.000316 µM): 97.6%; viability, T/C (second compound 0.316 µM, first compound 0.001 µM): 82%; viability, T/C (second compound 1 µM, first compound 0.000316 µM): 96.4%; viability, T/C (second compound 1 µM, first compound 0.001 µM): 82.2%; viability, T/C (second compound 3.16 µM, first compound 0.000316 µM): 95.8%; viability, T/C (second compound 3.16 µM, first compound 0.001 µM): 84.2%; viability, T/C [22]: 10.4%; viability, T/C (second compound 10 µM, first compound 0.000316 µM): 82.2%; viability, T/C (second compound 10 µM, first compound 0.001 µM): 75.5%; viability, T/C [25]: 65.4%; viability, T/C [26]: 42.4%; viability, T/C [27]: 16.9%; viability, T/C [28]: 11.3%
O=C(c1ccc(F)c(F)c1Nc1ccc(I)cc1F)N1CC(O)([C@@H]2CCCCN2)C1 + Cc1c(S(C)(=O)=O)c(-c2cc(F)cc(N3CCN(c4ccc(NS(=O)(=O)c5ccc(NC(CCN6CCC(C(=O)OCCCP(=O)(O)O)CC6)CSc6ccccc6)c(S(=O)(=O)C(F)(F)F)c5)cc4)CC3)c2)c(-c2ccc(Cl)cc2)n1C(C)C	566	575	576	511	563	97.4	111	106	112	110	107	99.5	117	115	110	114	110	107	101	105	viability, T/C [5]: 77.6%; viability, T/C [6]: 22.9%; viability, T/C [11]: 79.3%; viability, T/C [12]: 22.9%; viability, T/C [17]: 81.8%; viability, T/C [18]: 20.8%; viability, T/C [22]: 98.7%; viability, T/C [23]: 71.8%; viability, T/C [24]: 19.6%; viability, T/C [25]: 96.2%; viability, T/C [26]: 96.4%; viability, T/C [27]: 104%; viability, T/C [28]: 104%; viability, T/C [29]: 81.7%; viability, T/C [30]: 18.1%
